Measured values: patent US5051403A (priority 1989, dated 1991)
pIC50, pKi: −log10 of the molar value. Values joined by “and” are separate entries in the source; they are usually repeats but may differ in a detail not shown here. Identical values can stand only once. Bridge positions count the residues as written; N and C are the ends. Square brackets hold non-standard residues; d marks the D form. Peptide text beside a SMILES is read from it. Hyp = O=C(O)[C@@H]1C[C@@H](O)CN1

What was measured:
[1] = test system: voltage-gated calcium channels, dorsal root ganglion (DRG) neurons; conditions: cited from earlier work
[2] = molecular target: OCT binding site, rat brain synaptosomes (Rattus norvegicus, UniProt Q02294); experiment: biochemical
[3] = test system: depolarization-dependent ATP release from electric organ synaptosomes; type: biochemical, Ommata discopyge; conditions: read-out: IC50 (ATP release inhibition)
[4] = molecular target: OCT binding sites, elasmobranch electric organ synaptosomes (Diplobatis ommata, UniProt P56698); experiment: biochemical; set-up: species or system Ommata dyscopyge (marine electric ray)
[5] = test system: hippocampal CA1 region, gerbil global ischemia model; set-up: species or system Meriones unguiculatus (mongolian gerbil); conditions: in vivo
[6] = molecular target: OCT receptor sites, PC-12 rat pheochromocytoma cells (Rattus norvegicus, UniProt Q02294); type: binding
[7] = test system: hippocampal CA1 region, rat four-vessel occlusion model; set-up: species or system rat (Fisher 344); conditions: in vivo
[8] = test system: OCT receptor sites, 293 human kidney cells; type: binding
Male Swiss-Webster mice = conditions: mouse, in vivo; cited from earlier work

OCT binding site, rat brain synaptosomes, sequence (Q02294 whole entry, looked up): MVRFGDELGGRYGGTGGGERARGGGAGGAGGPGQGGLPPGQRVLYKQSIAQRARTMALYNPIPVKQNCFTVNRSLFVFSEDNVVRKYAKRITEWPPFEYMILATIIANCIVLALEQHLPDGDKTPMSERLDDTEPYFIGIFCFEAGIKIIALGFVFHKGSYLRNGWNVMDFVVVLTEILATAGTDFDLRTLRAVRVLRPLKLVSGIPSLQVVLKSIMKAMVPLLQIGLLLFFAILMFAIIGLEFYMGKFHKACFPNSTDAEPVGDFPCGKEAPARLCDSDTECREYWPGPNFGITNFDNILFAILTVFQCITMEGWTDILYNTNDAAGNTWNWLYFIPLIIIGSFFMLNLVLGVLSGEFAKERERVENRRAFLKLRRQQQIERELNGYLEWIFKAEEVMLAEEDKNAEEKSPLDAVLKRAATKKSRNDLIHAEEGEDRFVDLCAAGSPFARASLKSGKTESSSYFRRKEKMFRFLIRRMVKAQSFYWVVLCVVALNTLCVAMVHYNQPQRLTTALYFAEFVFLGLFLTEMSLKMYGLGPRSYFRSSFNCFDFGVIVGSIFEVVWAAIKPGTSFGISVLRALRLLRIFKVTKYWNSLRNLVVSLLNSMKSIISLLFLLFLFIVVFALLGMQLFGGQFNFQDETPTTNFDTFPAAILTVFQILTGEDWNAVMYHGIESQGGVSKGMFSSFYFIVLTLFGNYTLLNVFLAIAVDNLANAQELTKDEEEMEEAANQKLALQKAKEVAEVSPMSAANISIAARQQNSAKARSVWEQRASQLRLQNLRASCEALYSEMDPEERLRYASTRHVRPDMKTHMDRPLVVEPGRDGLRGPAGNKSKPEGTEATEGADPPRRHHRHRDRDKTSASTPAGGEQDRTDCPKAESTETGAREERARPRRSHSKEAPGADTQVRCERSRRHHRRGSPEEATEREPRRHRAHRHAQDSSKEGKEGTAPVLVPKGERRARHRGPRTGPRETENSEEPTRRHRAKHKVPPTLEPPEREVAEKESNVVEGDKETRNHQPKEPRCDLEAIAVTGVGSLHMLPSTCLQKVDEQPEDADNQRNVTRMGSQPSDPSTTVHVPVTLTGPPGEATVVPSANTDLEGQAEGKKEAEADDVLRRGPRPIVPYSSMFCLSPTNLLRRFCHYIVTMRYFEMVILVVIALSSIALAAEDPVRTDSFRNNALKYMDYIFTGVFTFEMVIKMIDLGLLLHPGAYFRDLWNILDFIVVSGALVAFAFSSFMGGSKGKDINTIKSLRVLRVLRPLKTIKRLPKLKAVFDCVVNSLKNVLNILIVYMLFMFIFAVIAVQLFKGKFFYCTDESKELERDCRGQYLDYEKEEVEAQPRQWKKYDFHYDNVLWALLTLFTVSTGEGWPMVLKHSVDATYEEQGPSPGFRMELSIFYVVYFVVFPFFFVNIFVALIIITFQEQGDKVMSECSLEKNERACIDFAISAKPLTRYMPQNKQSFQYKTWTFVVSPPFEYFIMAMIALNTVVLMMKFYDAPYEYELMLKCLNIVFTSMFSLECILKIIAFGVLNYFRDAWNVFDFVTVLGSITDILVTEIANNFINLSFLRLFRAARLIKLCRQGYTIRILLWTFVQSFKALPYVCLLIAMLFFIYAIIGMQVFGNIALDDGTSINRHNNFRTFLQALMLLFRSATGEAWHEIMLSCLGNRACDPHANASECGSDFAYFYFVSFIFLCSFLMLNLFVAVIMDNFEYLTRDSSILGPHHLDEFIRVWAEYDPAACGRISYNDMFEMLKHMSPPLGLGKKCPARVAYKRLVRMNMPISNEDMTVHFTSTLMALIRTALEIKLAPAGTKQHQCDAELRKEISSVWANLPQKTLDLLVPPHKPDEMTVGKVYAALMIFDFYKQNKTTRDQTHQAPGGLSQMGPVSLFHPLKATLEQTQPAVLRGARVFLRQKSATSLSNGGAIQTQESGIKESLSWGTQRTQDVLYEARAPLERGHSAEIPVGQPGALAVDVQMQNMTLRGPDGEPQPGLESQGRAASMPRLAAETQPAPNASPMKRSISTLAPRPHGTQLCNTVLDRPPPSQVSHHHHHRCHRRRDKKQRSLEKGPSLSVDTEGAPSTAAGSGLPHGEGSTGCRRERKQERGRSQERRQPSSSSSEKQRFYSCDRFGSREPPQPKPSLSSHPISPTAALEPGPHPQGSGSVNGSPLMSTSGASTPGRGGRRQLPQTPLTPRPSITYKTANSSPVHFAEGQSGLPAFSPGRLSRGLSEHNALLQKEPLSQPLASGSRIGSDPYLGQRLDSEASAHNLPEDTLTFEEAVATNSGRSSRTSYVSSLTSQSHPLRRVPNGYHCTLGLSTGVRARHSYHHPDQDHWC
OCT binding sites, elasmobranch electric organ synaptosomes, sequence (P56698 whole entry, looked up): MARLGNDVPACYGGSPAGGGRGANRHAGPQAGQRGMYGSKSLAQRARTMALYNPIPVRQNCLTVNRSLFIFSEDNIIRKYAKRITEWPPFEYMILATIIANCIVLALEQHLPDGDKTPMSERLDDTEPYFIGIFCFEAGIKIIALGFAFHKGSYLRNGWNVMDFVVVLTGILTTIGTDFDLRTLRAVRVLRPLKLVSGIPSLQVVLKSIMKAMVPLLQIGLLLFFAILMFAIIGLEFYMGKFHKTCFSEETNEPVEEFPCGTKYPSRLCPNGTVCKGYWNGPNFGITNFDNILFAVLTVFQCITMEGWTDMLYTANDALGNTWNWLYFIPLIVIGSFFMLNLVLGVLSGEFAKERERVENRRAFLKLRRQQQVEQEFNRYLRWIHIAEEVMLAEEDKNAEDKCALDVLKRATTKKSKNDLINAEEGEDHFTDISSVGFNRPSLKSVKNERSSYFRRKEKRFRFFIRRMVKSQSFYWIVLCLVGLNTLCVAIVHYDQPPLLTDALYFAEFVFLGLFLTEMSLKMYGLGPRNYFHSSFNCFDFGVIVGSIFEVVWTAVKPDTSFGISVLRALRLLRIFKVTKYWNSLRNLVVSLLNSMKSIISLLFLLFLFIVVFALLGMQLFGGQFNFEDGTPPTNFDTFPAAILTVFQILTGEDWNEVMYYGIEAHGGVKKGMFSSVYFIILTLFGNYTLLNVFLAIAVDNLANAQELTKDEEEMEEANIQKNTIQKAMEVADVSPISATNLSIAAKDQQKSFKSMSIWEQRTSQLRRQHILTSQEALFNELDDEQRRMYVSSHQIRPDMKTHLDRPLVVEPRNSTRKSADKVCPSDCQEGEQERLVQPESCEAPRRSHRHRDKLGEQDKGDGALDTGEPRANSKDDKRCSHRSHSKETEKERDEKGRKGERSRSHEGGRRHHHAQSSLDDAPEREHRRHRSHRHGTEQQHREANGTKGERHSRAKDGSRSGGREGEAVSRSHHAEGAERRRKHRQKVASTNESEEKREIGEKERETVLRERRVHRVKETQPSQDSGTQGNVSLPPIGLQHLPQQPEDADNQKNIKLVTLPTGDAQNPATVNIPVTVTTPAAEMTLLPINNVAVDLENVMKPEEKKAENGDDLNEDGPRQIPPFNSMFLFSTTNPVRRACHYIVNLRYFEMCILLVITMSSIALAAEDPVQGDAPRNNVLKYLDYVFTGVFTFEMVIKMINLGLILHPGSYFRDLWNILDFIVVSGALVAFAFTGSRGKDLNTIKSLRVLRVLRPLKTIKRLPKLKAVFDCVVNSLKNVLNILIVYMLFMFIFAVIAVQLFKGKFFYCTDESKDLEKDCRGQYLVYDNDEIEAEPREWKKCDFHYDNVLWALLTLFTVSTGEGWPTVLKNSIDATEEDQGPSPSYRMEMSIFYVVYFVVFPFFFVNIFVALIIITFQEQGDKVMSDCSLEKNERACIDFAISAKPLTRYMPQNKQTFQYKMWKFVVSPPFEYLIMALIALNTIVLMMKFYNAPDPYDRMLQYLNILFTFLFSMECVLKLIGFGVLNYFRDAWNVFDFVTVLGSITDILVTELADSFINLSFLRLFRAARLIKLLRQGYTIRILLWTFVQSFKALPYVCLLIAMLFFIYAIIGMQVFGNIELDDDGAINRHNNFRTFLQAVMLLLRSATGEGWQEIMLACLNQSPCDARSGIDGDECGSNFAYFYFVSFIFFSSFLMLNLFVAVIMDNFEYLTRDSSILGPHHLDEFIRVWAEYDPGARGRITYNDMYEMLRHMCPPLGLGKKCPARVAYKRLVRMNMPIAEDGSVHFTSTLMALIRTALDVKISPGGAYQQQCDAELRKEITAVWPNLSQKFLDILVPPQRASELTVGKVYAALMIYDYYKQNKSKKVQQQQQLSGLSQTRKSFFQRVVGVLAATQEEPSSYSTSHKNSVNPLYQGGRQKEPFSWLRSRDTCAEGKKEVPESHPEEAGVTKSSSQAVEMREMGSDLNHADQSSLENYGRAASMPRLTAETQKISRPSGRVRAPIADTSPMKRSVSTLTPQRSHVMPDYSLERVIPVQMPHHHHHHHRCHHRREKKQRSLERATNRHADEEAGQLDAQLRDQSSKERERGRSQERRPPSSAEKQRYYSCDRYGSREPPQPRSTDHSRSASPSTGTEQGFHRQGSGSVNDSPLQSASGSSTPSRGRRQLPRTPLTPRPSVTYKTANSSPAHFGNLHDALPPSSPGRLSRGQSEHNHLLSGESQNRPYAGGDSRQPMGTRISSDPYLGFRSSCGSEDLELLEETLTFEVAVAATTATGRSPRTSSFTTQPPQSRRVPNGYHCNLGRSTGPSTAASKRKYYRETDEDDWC
OCT receptor sites, PC-12 rat pheochromocytoma cells, sequence (Q02294 whole entry, looked up): as the sequence (Q02294 whole entry, looked up) above

In the case of `C[C@@H](O)[C@@H]1NC(=O)[C@H](Cc2ccc(O)cc2)NC(=O)[C@@H]2C[C@@H](O)CN2C(=O)[C@H](CC(N)=O)NC(=O)[C@@H]2CSSC[C@@H]3NC(=O)[C@H](CO)NC(=O)[C@H](CO)NC(=O)CNC(=O)[C@@H]4C[C@@H](O)CN4C(=O)[C@H](CO)NC(=O)[C@H](CCCCN)NC(=O)[C@@H](N)CSSC[C@H](NC(=O)[C@H](CSSC[C@@H](C(=O)N[C@@H](Cc4ccc(O)cc4)C(N)=O)NC(=O)[C@H](CCCNC(=N)N)NC(=O)[C@H](CCCCN)NC1=O)NC(=O)[C@H](CC(N)=O)NC(=O)[C@H](Cc1ccc(O)cc1)NC(=O)[C@H](CO)NC(=O)[C@H]([C@@H](C)O)NC(=O)[C@@H]1C[C@@H](O)CN1C(=O)[C@H](CO)NC3=O)C(=O)N[C@@H](CCCNC(=N)N)C(=O)N[C@@H](CO)C(=O)N2` [GVIA, HCysLysSer4HypGlySerSerCysSer4HypThrSerTyrAsnCysCysArgSerCysAsn4HypTyrLysArgCysTyr-NH2], the “block of voltage-gated calcium channels” value [1] is listed as “block voltage-gated calcium channels”, the pIC50 [2] is listed as 9.32 and the pIC50 [3] is listed as 6.70. For the same molecule, the pKi ([4]; pKi) was 7.85, the “Mean score (S.E.M), CA1 damage 0-4” value [5] was 1.3 (.33) and 1.2 (.39) and the “Percent Damage” value [5] was 42% and 39%. The reduction in damage [5] was over 50%.
`CSCC[C@@H]1NC(=O)CNC(=O)[C@H](CCCNC(=N)N)NC(=O)[C@H](CO)NC(=O)[C@@H]2CSSC[C@@H]3NC(=O)[C@H](CO)NC(=O)[C@H]([C@@H](C)O)NC(=O)[C@H](CSSC[C@H](N)C(=O)N[C@@H](CCCCN)C(=O)N[C@@H](CO)C(=O)N4C[C@H](O)C[C@H]4C(=O)NCC(=O)N[C@@H]([C@@H](C)O)C(=O)N4C[C@H](O)C[C@H]4C(=O)N2)NC(=O)[C@H](CSSC[C@@H](C(=O)N[C@@H](CCCNC(=N)N)C(=O)N[C@@H](CCCNC(=N)N)C(=O)N[C@@H](Cc2ccc(O)cc2)C(N)=O)NC(=O)[C@H](CCCCN)NC(=O)[C@H](CC(N)=O)NC(=O)[C@H](CO)NC(=O)[C@H](Cc2ccc(O)cc2)NC(=O)[C@H](CC(C)C)NC(=O)[C@H](CC(C)C)NC3=O)NC(=O)[C@H](CC(=O)O)NC(=O)[C@H](CCCNC(=N)N)NC1=O` [GVIIA] (H-CKS[Hyp]GT[Hyp]CSRGMRDCCTSCLLYSNKCRRY-NH2; disulfide 1-16, 8-19, 15-26) showed a pIC50 [2] of 7.64 and a pKi ([4]; pKi) of 8.51.
For `CSCC[C@@H]1NC(=O)[C@H](CC(C)C)NC(=O)[C@H](CCCNC(=N)N)NC(=O)[C@H](CO)NC(=O)[C@@H]2CSSC[C@@H]3NC(=O)[C@H](CO)NC(=O)CNC(=O)[C@H]([C@@H](C)O)NC(=O)[C@H](CSSC[C@H](N)C(=O)N[C@@H](CCCCN)C(=O)NCC(=O)N[C@@H](CCCCN)C(=O)NCC(=O)N[C@@H](C)C(=O)N[C@@H](CCCCN)C(=O)N2)NC(=O)[C@H](CSSC[C@@H](C(N)=O)NC(=O)[C@H](CCCCN)NC(=O)CNC(=O)[C@H](CO)NC(=O)[C@H](CCCNC(=N)N)NC3=O)NC(=O)[C@H](CC(=O)O)NC(=O)[C@H](Cc2ccc(O)cc2)NC1=O` [MVIIA], the pIC50 [3] was 7.52, the “concentration of specific binding sites” value [6] was 56.6 and 79.1 and the “Mean score (S.E.M), CA1 damage 0-4” value [7] was 1.2 (0.36). For the same molecule, the “concentration of specific binding sites” value [8] was under 4.6 and the “effect of ICV administration in mice” value (Male Swiss-Webster mice) was “whole-body tremors”.
Work on `C[C@@H]1NC(=O)CNC(=O)[C@H](CCCCN)NC(=O)CNC(=O)[C@H](CCCCN)NC(=O)[C@@H](N)CSSC[C@@H]2NC(=O)[C@@H]3CSSC[C@@H](C(N)=O)NC(=O)[C@H](CCCCN)NC(=O)CNC(=O)[C@H](CCCNC(=N)N)NC(=O)[C@H](CC(N)=O)NC(=O)[C@H](CSSC[C@H](NC(=O)[C@H](CO)NC1=O)C(=O)N[C@@H](Cc1c[nH]cn1)C(=O)N[C@@H](CCCNC(=N)N)C(=O)N[C@@H]([C@@H](C)O)C(=O)N[C@@H](CO)C(=O)N[C@@H](Cc1ccc(O)cc1)C(=O)N[C@@H](CC(=O)O)C(=O)N3)NC(=O)[C@H](CO)NC(=O)CNC(=O)[C@H]([C@@H](C)O)NC2=O` [MVIIB] (H-CKGKGASCHRTSYDCCTGSCNRGKC-NH2; disulfide 1-16, 8-20, 15-25) yielded a pIC50 [2] of 9.31 and a pKi ([4]; pKi) of 7.66.
Molecule `CC(C)[C@@H]1NC(=O)[C@H](CCCNC(=N)N)NC(=O)[C@@H]2CSSC[C@@H]3NC(=O)[C@H](CO)NC(=O)[C@H](CO)NC(=O)[C@H](CSSC[C@H](N)C(=O)N[C@@H](CCCCN)C(=O)N4CCC[C@H]4C(=O)N4C[C@H](O)C[C@H]4C(=O)NCC(=O)N[C@@H](CO)C(=O)N4C[C@H](O)C[C@H]4C(=O)N2)NC(=O)[C@H](CSSC[C@@H](C(=O)NCC(N)=O)NC(=O)[C@H](CCCCN)NC(=O)[C@H](CCCCN)NC(=O)[C@H](CC(N)=O)NC(=O)[C@H](Cc2ccc(O)cc2)NC(=O)[C@H](CO)NC(=O)[C@H](CCCCN)NC3=O)NC(=O)[C@H](CC(N)=O)NC(=O)[C@H](Cc2ccc(O)cc2)NC(=O)[C@H](CO)NC(=O)[C@H](CO)NC1=O` [RVIA] (H-CKP[Hyp]GS[Hyp]CRVSSYNCCSSCKSYNKKCG-NH2; disulfide 1-16, 8-19, 15-26) has a pIC50 [2] of 6.64, a pKi ([4]; Ki) of 6.49 and a pKi ([4]; pKi) of 6.45.
With `CC[C@H](C)[C@@H]1NC(=O)[C@H](CO)NC(=O)[C@H]([C@@H](C)O)NC(=O)[C@H](C(C)C)NC(=O)CNC(=O)[C@@H]2CSSC[C@@H]3NC(=O)[C@H](CCCNC(=N)N)NC(=O)CNC(=O)[C@H](CSSC[C@H](N)C(=O)N[C@@H](CCCNC(=N)N)C(=O)N[C@@H](CO)C(=O)N[C@@H](CO)C(=O)NCC(=O)N[C@@H](CO)C(=O)N4C[C@H](O)C[C@H]4C(=O)N[C@@H](Cc4c[nH]cn4)C(=O)N2)NC(=O)[C@H](CSSC[C@@H](C(=O)N[C@H](C(N)=O)[C@@H](C)O)NC(=O)[C@H](CCCCN)NC(=O)CNC(=O)[C@H](CCCNC(=N)N)NC(=O)[C@H](Cc2ccc(O)cc2)NC3=O)NC1=O` [SVIA, H-CysArgSerSerGlySer4HypHisCysGlyValThrSerIleCysCysGly ArgCysTyrArgGlyLysCysThr-NH2] (H-CRSSGS[Hyp]HCGVTSICCGRCYRGKCT-NH2; disulfide 1-16, 9-19, 15-24) the pIC50 [2] was under 3.00, the “binding affinity/activity (in words)” value [4] was “relatively low affinity binding” and the pKi ([4]; pKi) was under 3.00.
For `CC(C)C[C@@H]1NC(=O)[C@H](CCCCN)NC(=O)[C@@H](N)CSSC[C@@H]2NC(=O)[C@@H]3CSSC[C@@H](C(N)=O)NC(=O)[C@H](CCCCN)NC(=O)CNC(=O)[C@H](CO)NC(=O)[C@H](CCCNC(=N)N)NC(=O)CNC(=O)[C@H](CSSC[C@H](NC(=O)[C@H](CO)NC(=O)[C@H](CCC(N)=O)NC(=O)CNC(=O)[C@H](CCCCN)NC1=O)C(=O)N[C@@H](CCCNC(=N)N)C(=O)N[C@@H](CCCCN)C(=O)N[C@@H]([C@@H](C)O)C(=O)N[C@@H](CO)C(=O)N[C@@H](Cc1ccc(O)cc1)C(=O)N[C@@H](CC(=O)O)C(=O)N3)NC(=O)[C@H](CO)NC(=O)CNC(=O)[C@H](CO)NC2=O` [SVIB] (H-CKLKGQSCRKTSYDCCSGSCGRSGKC-NH2; disulfide 1-16, 8-20, 15-26), the pIC50 [2] was 8.24 and the pKi ([4]; pKi) was 8.52.
